Reference: publication PMC7490411 (Signal Transduction and Targeted Therapy, 2020)

Tests used:
EPHA5 = experiment: KINOMEscan; assay type: binding; conditions: 1000 nM
PRP4 = experiment: KINOMEscan; assay type: binding; conditions: 1000 nM
PLK1 = experiment: KINOMEscan; assay type: binding; conditions: 1000 nM
LRRK2(G2019S) = experiment: KINOMEscan; assay type: binding; conditions: 1000 nM
GRK4 = experiment: KINOMEscan; assay type: binding; conditions: 1000 nM
ACVR2A = experiment: KINOMEscan; assay type: binding; conditions: 1000 nM
SIK = experiment: KINOMEscan; assay type: binding; conditions: 1000 nM
YANK2 = experiment: KINOMEscan; assay type: binding; conditions: 1000 nM
ERBB2 = experiment: KINOMEscan; assay type: binding; conditions: 1000 nM
[1] = system: BTK Y223 autophosphorylation; experiment: signaling pathway western blot in TMD8, REC-1 and DOHH2 cells; assay type: cell-based; conditions: 4 h
Source text: The cells were then washed in PBS and lysed in cell lysis buffer. BTK, Phospho-BTK(Tyr223), PLCγ2, Phospho-PLCγ2 (Tyr1217), Phospho-AKT […], Phospho-NF-κB p65(Ser536), ERK, Phospho-p44/42MAPK (ERK1/2) (Thr202/Tyr204), AKT and GAPDH antibody (Cell signaling Technology) were used for immunoblotting.

PAK2 = experiment: KINOMEscan; assay type: binding; conditions: 1000 nM
CDK5 = experiment: KINOMEscan; assay type: binding; conditions: 1000 nM
DAPK2 = experiment: KINOMEscan; assay type: binding; conditions: 1000 nM
CDC2L2 = experiment: KINOMEscan; assay type: binding; conditions: 1000 nM
CSNK1G3 = experiment: KINOMEscan; assay type: binding; conditions: 1000 nM
PCTK1 = experiment: KINOMEscan; assay type: binding; conditions: 1000 nM
RET(M918T) = experiment: KINOMEscan; assay type: binding; conditions: 1000 nM
SRMS = experiment: KINOMEscan; assay type: binding; conditions: 1000 nM
CHEK1 = experiment: KINOMEscan; assay type: binding; conditions: 1000 nM
CAMK1 = experiment: KINOMEscan; assay type: binding; conditions: 1000 nM
KIT = experiment: KINOMEscan; assay type: binding; conditions: 1000 nM
TNIK = experiment: KINOMEscan; assay type: binding; conditions: 1000 nM
CSNK2A1 = experiment: KINOMEscan; assay type: binding; conditions: 1000 nM
FLT3(ITD,D835V) = experiment: KINOMEscan; assay type: binding; conditions: 1000 nM
ANKK1 = experiment: KINOMEscan; assay type: binding; conditions: 1000 nM
HCK = experiment: KINOMEscan; assay type: binding; conditions: 1000 nM
CDK9 = experiment: KINOMEscan; assay type: binding; conditions: 1000 nM
FGFR2 = experiment: KINOMEscan; assay type: binding; conditions: 1000 nM
CDK2 = experiment: KINOMEscan; assay type: binding; conditions: 1000 nM
FLT3-autoinhibited = experiment: KINOMEscan; assay type: binding; conditions: 1000 nM
PIK3C2B = experiment: KINOMEscan; assay type: binding; conditions: 1000 nM
KIT(V559D,T670I) = experiment: KINOMEscan; assay type: binding; conditions: 1000 nM

C=CC(=O)Nc1cc(Nc2cc(-c3cccc(NC(=O)c4cc5c(s4)CCCC5)c3C)cn(C)c2=O)ccc1N1CCN(CC)CC1 [CHMFL-BTK-85] was tested, and the “Percent Control” value (EPHA5) was 100%, the “Percent Control” value (PRP4) was 92% and the “Percent Control” value (PLK1) was 100%. The “Percent Control” value (LRRK2(G2019S)) was 100%, the “Percent Control” value (GRK4) was 88% and the “Percent Control” value (ACVR2A) was 97%. For the same molecule, the “Percent Control” value (SIK) was 99%, the “Percent Control” value (YANK2) was 77% and the “Percent Control” value (ERBB2) was 99%. The “concentration blocking BTK Y223 autophosphorylation” value [1] was less than 10 nM, the “Percent Control” value (PAK2) was 100% and the “Percent Control” value (CDK5) was 98%. For the same molecule, the “Percent Control” value (DAPK2) was 100%, the “Percent Control” value (CDC2L2) was 89% and the “Percent Control” value (CSNK1G3) was 100%. For the same molecule, the “Percent Control” value (PCTK1) was 100%, the “Percent Control” value (RET(M918T)) was 78% and the “Percent Control” value (SRMS) was 85%. For the same molecule, the “Percent Control” value (CHEK1) was 79%, the “Percent Control” value (CAMK1) was 100% and the “Percent Control” value (KIT) was 92%. For the same molecule, the “Percent Control” value (TNIK) was 99%, the “Percent Control” value (CSNK2A1) was 94% and the “Percent Control” value (FLT3(ITD,D835V)) was 100%. The “Percent Control” value (ANKK1) was 100%, the “Percent Control” value (HCK) was 100% and the “Percent Control” value (CDK9) was 100%. The “Percent Control” value (FGFR2) was 77%, the “Percent Control” value (CDK2) was 85% and the “Percent Control” value (FLT3-autoinhibited) was 100%. The “Percent Control” value (PIK3C2B) was 92% and the “Percent Control” value (KIT(V559D,T670I)) was 100%.
